From ChEMBL document CHEMBL1146443, “New indole derivatives with free radical scavenging activity from Agrocybe cylindracea” (J Nat Prod, 1997)
In brackets after ≈: the same amount, converted by molar mass. Activity calls are given as the source filed them. No cut-off for these calls is given here.

What was measured:
[1] = test system: Liver microsomes; test: Inhibition of lipid peroxidation in rat liver microsome; assay type: functional
[2] = test system: Liver microsomes; test: Inhibition of lipid peroxidation in rat liver microsome at 50 ug/mL; assay type: functional

Row | IC50 [1] [µg/mL] | Structure (SMILES) | Activity [2]
1 | 3.9 (≈ 20.5 µM) | NC(=O)Cc1c[nH]c2cc(O)ccc12 | –
2 | – | O=C(O)Cc1c[nH]c2ccccc12 | inactive
3 | 4.1 (≈ 25.4 µM) | O=Cc1c[nH]c2cc(O)ccc12 | –
